Assay results taken from ChEMBL document CHEMBL5357059, “Arenarialins A-F, Anti-inflammatory Meroterpenoids with Rearranged Skeletons from the Marine Sponge Dysidea arenaria” (J Nat Prod, 2024).
Active and inactive are the calls of the source. The calls are words filed in the database; no cut-off is given here.

Tests used:
[1] = tested on: RAW264.7; test: Cytotoxicity against mouse RAW264.7 cells assessed as reduction in cell viability at 2.5 to 20 uM incubated for 24 hrs by CCK-8 assay; type: toxicity, cell-based; conditions: raw264.7, 24 h, dose 2.5-20 µM
[2] = tested on: RAW264.7; test: Antiinflammatory activity in LPS-induced mouse RAW264.7 cells assessed as inhibition of IL-6 production pretreated for 1 hr followed by LPS stimulation and measured after 3 hrs by ELISA; type: functional, cell-based; conditions: dose 2.5-20 µM, time 4.0 hrs
[3] = tested on: RAW264.7; test: Effect on COX-2 protein expression in LPS-induced mouse RAW264.7 cells at 5 uM pretreated for 2 hrs followed by LPS stimulation and measured after 25 mins by Western blot analysis; type: functional, cell-based; conditions: time 145.0 min
[4] = tested on: RAW264.7; test: Inhibition of LPS-induced p38 phosphorylation in mouse RAW264.7 cells assessed as reduction in p-p38 protein expression at 2.5 to 5 uM pretreated for 2 hrs followed by LPS stimulation and measured after 25 mins by Western blot analysis; type: cell-based; conditions: dose 2.5-5 µM, time 145.0 min
[5] = molecular target: T1, NF-kappa-B inhibitor alpha (Mus musculus) (UniProt Q9Z1E3); test: Inhibition of IkappaBalpha phosphorylation at Ser32 residue in LPS-induced mouse RAW264.7 cells at 5 uM pretreated for 2 hrs followed by LPS stimulation and measured after 25 mins by Western blot analysis; type: cell-based; conditions: time 145.0 min
T1 sequence (whole entry): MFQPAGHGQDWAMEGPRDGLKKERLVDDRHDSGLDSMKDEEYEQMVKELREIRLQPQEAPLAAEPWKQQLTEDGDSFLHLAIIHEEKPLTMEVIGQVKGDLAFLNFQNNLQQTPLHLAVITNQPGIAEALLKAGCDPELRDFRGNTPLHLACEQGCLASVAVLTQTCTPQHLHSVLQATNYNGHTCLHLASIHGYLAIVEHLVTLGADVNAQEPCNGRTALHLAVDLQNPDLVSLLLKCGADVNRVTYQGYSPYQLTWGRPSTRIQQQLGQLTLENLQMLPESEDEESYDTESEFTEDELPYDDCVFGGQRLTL

[6] = molecular target: Transcription factor p65 (Mus musculus) (UniProt Q04207); test: Inhibition of NFkappaB p65 phosphorylation at Ser536 residue in LPS-induced mouse RAW264.7 cells assessed as downregulation of p-NFkappaB p65 protein expression at 5 uM pretreated for 2 hrs followed by LPS stimulation and measured after 25 mins by Western blot analysis; type: cell-based; conditions: time 145.0 min
Transcription factor p65 (Mus musculus), sequence (Q04207 whole entry): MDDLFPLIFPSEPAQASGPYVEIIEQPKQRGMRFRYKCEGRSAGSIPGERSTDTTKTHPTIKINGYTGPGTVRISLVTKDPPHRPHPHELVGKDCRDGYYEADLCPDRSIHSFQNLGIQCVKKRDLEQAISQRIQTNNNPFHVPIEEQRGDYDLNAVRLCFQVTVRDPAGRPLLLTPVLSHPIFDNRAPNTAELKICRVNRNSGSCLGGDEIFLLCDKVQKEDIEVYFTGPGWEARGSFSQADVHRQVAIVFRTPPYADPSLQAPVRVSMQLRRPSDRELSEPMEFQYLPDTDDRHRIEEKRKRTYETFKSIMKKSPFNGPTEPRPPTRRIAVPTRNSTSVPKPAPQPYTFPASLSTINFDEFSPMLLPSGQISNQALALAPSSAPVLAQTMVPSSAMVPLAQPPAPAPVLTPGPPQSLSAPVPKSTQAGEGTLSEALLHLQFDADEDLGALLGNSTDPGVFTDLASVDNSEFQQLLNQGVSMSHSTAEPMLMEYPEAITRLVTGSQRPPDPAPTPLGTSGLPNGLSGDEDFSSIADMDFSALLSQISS

[7] = molecular target: Mitogen-activated protein kinase 1 and 3 (ERK2 and ERK1) (Mus musculus) (UniProt P63085+Q63844); test: Inhibition of LPS-induced ERK1/2 phosphorylation in mouse RAW264.7 cells assessed as reduction in p-ERK1/2 protein expression at 2.5 to 5 uM pretreated for 2 hrs followed by LPS stimulation and measured after 25 mins by Western blot analysis; type: cell-based; conditions: dose 2.5-5 µM, time 145.0 min
Mitogen-activated protein kinase 1 and 3 (ERK2 and ERK1) (Mus musculus), sequence (P63085 whole entry, looked up): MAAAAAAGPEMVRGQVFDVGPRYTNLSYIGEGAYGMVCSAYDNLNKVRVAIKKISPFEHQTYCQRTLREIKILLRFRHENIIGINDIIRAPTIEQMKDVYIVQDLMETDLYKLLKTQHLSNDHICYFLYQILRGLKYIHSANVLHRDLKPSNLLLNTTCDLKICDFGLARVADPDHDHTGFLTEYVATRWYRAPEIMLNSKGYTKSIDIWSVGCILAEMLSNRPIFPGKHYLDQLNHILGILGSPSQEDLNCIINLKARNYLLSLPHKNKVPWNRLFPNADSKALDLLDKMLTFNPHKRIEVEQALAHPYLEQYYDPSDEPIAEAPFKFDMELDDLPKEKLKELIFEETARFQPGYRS
Mitogen-activated protein kinase 1 and 3 (ERK2 and ERK1) (Mus musculus), sequence (Q63844 whole entry, looked up): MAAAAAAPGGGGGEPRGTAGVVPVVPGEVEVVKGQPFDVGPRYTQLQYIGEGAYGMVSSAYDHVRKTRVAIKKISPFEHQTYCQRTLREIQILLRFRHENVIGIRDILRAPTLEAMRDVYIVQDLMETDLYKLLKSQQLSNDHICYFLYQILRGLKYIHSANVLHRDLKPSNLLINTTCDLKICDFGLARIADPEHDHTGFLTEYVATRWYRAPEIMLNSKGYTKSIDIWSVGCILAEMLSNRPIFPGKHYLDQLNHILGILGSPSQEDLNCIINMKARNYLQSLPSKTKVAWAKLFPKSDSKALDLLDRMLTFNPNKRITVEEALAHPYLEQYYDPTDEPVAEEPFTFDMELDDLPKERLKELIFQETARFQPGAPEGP

[8] = tested on: RAW264.7; test: Antiinflammatory activity in LPS-induced mouse RAW264.7 cells assessed as inhibition of TNFalpha production at 5 to 20 uM pretreated for 1 hr followed by LPS stimulation and measured after 3 hrs by ELISA; type: functional, cell-based; conditions: dose 5-20 µM, time 4.0 hrs
[9] = molecular target: c-Jun N-terminal kinase (Mus musculus) (UniProt Q91Y86+Q9WTU6+Q61831); test: Inhibition of LPS-induced JNK phosphorylation in mouse RAW264.7 cells assessed as reduction in p-JNK protein expression at 2.5 to 5 uM pretreated for 2 hrs followed by LPS stimulation and measured after 25 mins by Western blot analysis; type: cell-based; conditions: dose 2.5-5 µM, time 145.0 min
c-Jun N-terminal kinase (Mus musculus), sequence (Q61831 whole entry, looked up): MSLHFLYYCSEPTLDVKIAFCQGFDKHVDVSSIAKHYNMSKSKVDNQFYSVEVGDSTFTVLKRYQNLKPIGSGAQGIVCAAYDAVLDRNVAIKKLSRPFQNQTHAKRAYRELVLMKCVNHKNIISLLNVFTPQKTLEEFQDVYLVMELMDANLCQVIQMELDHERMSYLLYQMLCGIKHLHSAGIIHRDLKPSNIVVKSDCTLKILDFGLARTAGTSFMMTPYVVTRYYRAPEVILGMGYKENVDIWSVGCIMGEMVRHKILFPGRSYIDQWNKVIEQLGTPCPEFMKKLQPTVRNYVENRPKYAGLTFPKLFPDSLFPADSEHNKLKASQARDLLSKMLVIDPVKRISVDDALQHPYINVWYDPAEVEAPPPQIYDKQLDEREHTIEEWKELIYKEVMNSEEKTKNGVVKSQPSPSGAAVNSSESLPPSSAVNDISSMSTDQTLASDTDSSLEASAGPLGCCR
c-Jun N-terminal kinase (Mus musculus), sequence (Q91Y86 whole entry, looked up): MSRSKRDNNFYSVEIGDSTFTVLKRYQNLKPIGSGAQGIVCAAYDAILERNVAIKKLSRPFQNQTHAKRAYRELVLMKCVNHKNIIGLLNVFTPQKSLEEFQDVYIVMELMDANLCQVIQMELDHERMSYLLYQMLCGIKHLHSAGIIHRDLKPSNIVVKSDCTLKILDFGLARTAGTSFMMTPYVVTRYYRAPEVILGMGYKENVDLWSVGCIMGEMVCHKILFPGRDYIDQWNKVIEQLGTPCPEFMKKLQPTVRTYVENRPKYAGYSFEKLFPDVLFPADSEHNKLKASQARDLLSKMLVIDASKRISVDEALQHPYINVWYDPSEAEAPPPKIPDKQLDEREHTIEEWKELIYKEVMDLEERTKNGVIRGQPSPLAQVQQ
c-Jun N-terminal kinase (Mus musculus), sequence (Q9WTU6 whole entry, looked up): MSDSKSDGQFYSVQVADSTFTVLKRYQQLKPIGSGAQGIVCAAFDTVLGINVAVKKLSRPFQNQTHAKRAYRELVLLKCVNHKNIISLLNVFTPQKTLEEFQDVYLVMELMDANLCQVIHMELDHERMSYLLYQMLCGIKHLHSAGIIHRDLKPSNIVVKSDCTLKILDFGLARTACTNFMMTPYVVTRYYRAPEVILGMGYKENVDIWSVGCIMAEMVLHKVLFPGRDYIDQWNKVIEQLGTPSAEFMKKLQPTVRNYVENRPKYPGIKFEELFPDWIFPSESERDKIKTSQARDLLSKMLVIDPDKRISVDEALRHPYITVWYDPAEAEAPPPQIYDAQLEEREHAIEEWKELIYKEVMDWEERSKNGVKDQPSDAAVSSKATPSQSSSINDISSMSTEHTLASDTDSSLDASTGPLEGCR

Compound	Activity [1]	Activity [2]	Activity [3]	inhibition [4]	inhibition [5]	inhibition [6]	inhibition [7]	Activity [8]	inhibition [9]
C=C1[C@H](O)C[C@@H]2Oc3ccc(O)cc3C[C@]3(C)[C@@H](C)CC[C@@]1(C)[C@@H]23	Non-Toxic	Dose-Dependent Effect							
C[C@@H]1CC[C@@]2(C)OC(=O)[C@H]3Oc4ccc(O)cc4C[C@]1(C)[C@@H]32	Non-Toxic	Dose-Dependent Effect	inactive	Active	inactive	Active	Active	Active	Active
CCOC1=CC(=O)C2=C(C1=O)[C@@H]1C[C@]3(C)C(C)=CCCC3=C(C)[C@]1(C)C2	Non-Toxic							Active	
C[C@H]1CC[C@]2(C)[C@@H](C)OC(=O)C[C@]23c2c(O)ccc(O)c2C[C@]13C	Non-Toxic								
C[C@H]1CC[C@@]2(C)[C@]34CC(=O)C[C@]2(C)Oc2ccc(O)c(c23)C[C@]14C	Non-Toxic	Dose-Dependent Effect						Active	
CC1=CC(=O)[C@@H]2Oc3ccc(O)cc3C[C@]3(C)[C@@H](C)CC[C@@]1(C)[C@@H]23	Non-Toxic	Dose-Dependent Effect						Active	
